Source: patent US12460243B2, “Mass spectrometry determination of the sensitivity or resistance of bacteria to an antibiotic” (priority 2019, dated 2025)
Bridge positions count the residues as written; N and C are the ends. Square brackets hold non-standard residues; d marks the D form. Peptide text beside a SMILES is read from it. * marks the point of attachment. Heptanoyl(6-Me) = CC(C)CCCCC(=O)*; Dab = NCC[C@H](N)C(=O)O

Test system: Klebsiella pneumoniae
Assay: MALDI-TOF detection of released characteristic proteins, 10 min at 50° C., filtration (examples V, VI)
Assay type: cell-based
Conditions: colistin 2.5 mg/ml, 10 min 50° C.
Method: The tests were carried out using the following steps: • preparing a suspension of microorganism at 2 McF in water (suspension medium, bioMérieux reference 70700), • preparing a solution of colistin sulfate (Sigma reference C4461) at a concentration of 2× in pure water (taking into account the colistin titer indicated by the manufacturer).
The proteins characteristic of the species Klebsiella pneumoniae are the DNA binding protein H-NS, the ribosomal proteins L29, L31, L34 and US9, the cold shock protein containing a CsbD domain (CsbD domain-containing protein), and the uncharacterized proteins with m/z 6290 and 8308. These proteins are characterized respectively by the peaks at 7705 (DNA binding protein H-NS), 7274 (L29), 7743 (L31), 5381 (L34), 7384 (US9), 8309 (CsbD), more or less 1000 parts per million (ppm). For their part, the hypothetical proteins are characterized by peaks at 6290 and […], more or less 1000 parts per million (ppm).
In the context of this example, the tests were carried out with the method of the present invention to determine the sensitivity or resistance of several bacteria of several strains such as in example V and comprising the following steps: • measuring the intensity of each peak observed, • finding a ratio between the sum of the intensities of the protein peaks of the microorganism and at least 1 peak of colistin. • determining the status, resistant or sensitive to colistin, as a function of the sum of the ratios obtained and of a threshold fixed for each species. • a resistant microorganism will have a low ratio and a sensitive microorganism will have a high ratio.
The K. pneumoniae strains KP S10-1, KP S10-2, KP S15-1, KP S15-2, KP R9-1, KP R9-2, KP R16-1 and KP R16-2 are also studied and the proteins characteristic of the species K. pneumoniae are analyzed. These characteristic proteins are the DNA binding protein H-NS, the ribosomal proteins L29, L31, L34 and US9, the cold shock protein containing a CsbD domain (CsbD domain-containing protein), and the uncharacterized proteins with m/z 6290 and 8308.

## CC(C)CCCCC(=O)N[C@@H](CCN)C(=O)N[C@H](C(=O)N[C@@H](CCN)C(=O)N[C@H]1CCNC(=O)[C@H]([C@@H](C)O)NC(=O)[C@H](CCN)NC(=O)[C@H](CCN)NC(=O)[C@H](CC(C)C)NC(=O)[C@@H](CC(C)C)NC(=O)[C@H](CCN)NC1=O)[C@@H](C)O [colistin] ({Heptanoyl(6-Me)}-[Dab]T[Dab][Dab][Dab][dL]L[Dab][Dab]T; lactam 4-C)
Strain KP R9-1
  Aire sous la courbe des pics observés, 6290: 0.00 unité arbitraire
  Aire sous la courbe des pics observés, 8308: 0 unité arbitraire
  Aire sous la courbe des pics observés, CsbD domain-containing protein: 0 unité arbitraire
  Aire sous la courbe des pics observés, DNA binding protein H-NS: 0.00 unité arbitraire
  Aire sous la courbe des pics observés, Protéine ribosomique 50S L29: 0 unité arbitraire
  Aire sous la courbe des pics observés, Protéine ribosomique 50S L31: 0 unité arbitraire
  Aire sous la courbe des pics observés, Protéine ribosomique 50S L34: 0 unité arbitraire
  Aire sous la courbe des pics observés, US9: 0 unité arbitraire
  Ratio par protéine 6290/Colistine: 0.00
  Ratio par protéine 8308/Colistine: 0.00
  Ratio par protéine CsbD/Colistine: 0.00
  Ratio par protéine DNA BP H-NS/Colistine: 0.00
  Ratio par protéine L29/Colistine: 0.00
  Ratio par protéine L31/Colistine: 0.00
  Ratio par protéine L34/Colistine: 0.00
  Ratio par protéine US9/Colistine: 0.00
  Somme des ratios: 0.00
Strain KP R9-2
  Aire sous la courbe des pics observés, 6290: 0.00 unité arbitraire
  Aire sous la courbe des pics observés, 8308: 0 unité arbitraire
  Aire sous la courbe des pics observés, CsbD domain-containing protein: 0 unité arbitraire
  Aire sous la courbe des pics observés, DNA binding protein H-NS: 89 unité arbitraire
  Aire sous la courbe des pics observés, Protéine ribosomique 50S L29: 0 unité arbitraire
  Aire sous la courbe des pics observés, Protéine ribosomique 50S L31: 0 unité arbitraire
  Aire sous la courbe des pics observés, Protéine ribosomique 50S L34: 0 unité arbitraire
  Aire sous la courbe des pics observés, US9: 0 unité arbitraire
  Ratio par protéine 6290/Colistine: 0.00
  Ratio par protéine 8308/Colistine: 0.00
  Ratio par protéine CsbD/Colistine: 0.00
  Ratio par protéine DNA BP H-NS/Colistine: 0.11
  Ratio par protéine L29/Colistine: 0.00
  Ratio par protéine L31/Colistine: 0.00
  Ratio par protéine L34/Colistine: 0.00
  Ratio par protéine US9/Colistine: 0.00
  Somme des ratios: 0.11
Strain KP R16-1
  Aire sous la courbe des pics observés, 6290: 0.00 unité arbitraire
  Aire sous la courbe des pics observés, 8308: 0 unité arbitraire
  Aire sous la courbe des pics observés, CsbD domain-containing protein: 0 unité arbitraire
  Aire sous la courbe des pics observés, DNA binding protein H-NS: 0.00 unité arbitraire
  Aire sous la courbe des pics observés, Protéine ribosomique 50S L29: 0 unité arbitraire
  Aire sous la courbe des pics observés, Protéine ribosomique 50S L31: 0 unité arbitraire
  Aire sous la courbe des pics observés, Protéine ribosomique 50S L34: 0 unité arbitraire
  Aire sous la courbe des pics observés, US9: 0 unité arbitraire
  Ratio par protéine 6290/Colistine: 0.00
  Ratio par protéine 8308/Colistine: 0.00
  Ratio par protéine CsbD/Colistine: 0.00
  Ratio par protéine DNA BP H-NS/Colistine: 0.00
  Ratio par protéine L29/Colistine: 0.00
  Ratio par protéine L31/Colistine: 0.00
  Ratio par protéine L34/Colistine: 0.00
  Ratio par protéine US9/Colistine: 0.00
  Somme des ratios: 0.00
Strain KP R16-2
  Aire sous la courbe des pics observés, 6290: 0.00 unité arbitraire
  Aire sous la courbe des pics observés, 8308: 0 unité arbitraire
  Aire sous la courbe des pics observés, CsbD domain-containing protein: 0 unité arbitraire
  Aire sous la courbe des pics observés, DNA binding protein H-NS: 0.00 unité arbitraire
  Aire sous la courbe des pics observés, Protéine ribosomique 50S L29: 0 unité arbitraire
  Aire sous la courbe des pics observés, Protéine ribosomique 50S L31: 0 unité arbitraire
  Aire sous la courbe des pics observés, Protéine ribosomique 50S L34: 0 unité arbitraire
  Aire sous la courbe des pics observés, US9: 0 unité arbitraire
  Ratio par protéine 6290/Colistine: 0.00
  Ratio par protéine 8308/Colistine: 0.00
  Ratio par protéine CsbD/Colistine: 0.00
  Ratio par protéine DNA BP H-NS/Colistine: 0.00
  Ratio par protéine L29/Colistine: 0.00
  Ratio par protéine L31/Colistine: 0.00
  Ratio par protéine L34/Colistine: 0.00
  Ratio par protéine US9/Colistine: 0.00
  Somme des ratios: 0.00
Strain KP S10-1
  Aire sous la courbe des pics observés, 6290: 837 unité arbitraire
  Aire sous la courbe des pics observés, 8308: 209 unité arbitraire
  Aire sous la courbe des pics observés, CsbD domain-containing protein: 0 unité arbitraire
  Aire sous la courbe des pics observés, DNA binding protein H-NS: 374 unité arbitraire
